PubChem BioAssay (NCI)
Several values for one entry are separate records, joined by “and”; a condition that tells them apart may be missing. Identical values can stand only once.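 Method: 48-hour compound exposure of cells in 96-well plates, five concentrations, linear interpolation of endpoints. The concentration for 50% growth inhibition is given as GI50. TGI is the concentration that stops growth completely.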

Tests used:
Assay in all cases: NCI-60 cell line screen, 48 h
HCT-15 colon = system: HCT-15 colon
K-562 leukemia = system: K-562 leukemia
CCRF-CEM leukemia = system: CCRF-CEM leukemia
OVCAR-8 ovarian = system: OVCAR-8 ovarian
UACC-257 melanoma = system: UACC-257 melanoma
A549 NSCLC = system: A549 NSCLC
UO-31 renal = system: UO-31 renal
EKVX NSCLC = system: EKVX NSCLC
SN12C renal = system: SN12C renal
OVCAR-3 ovarian = system: OVCAR-3 ovarian

SMILES	GI50 (HCT-15 colon)	TGI (HCT-15 colon)	GI50 (K-562 leukemia)	TGI (K-562 leukemia) [µM]	GI50 (CCRF-CEM leukemia)	TGI (CCRF-CEM leukemia)	GI50 (OVCAR-8 ovarian)	TGI (OVCAR-8 ovarian)	GI50 (UACC-257 melanoma)	TGI (UACC-257 melanoma)	GI50 (A549 NSCLC)	TGI (A549 NSCLC)	GI50 (UO-31 renal)	TGI (UO-31 renal)	GI50 (EKVX NSCLC)	TGI (EKVX NSCLC) [µM]	GI50 (SN12C renal)	TGI (SN12C renal) [µM]	GI50 (OVCAR-3 ovarian)	TGI (OVCAR-3 ovarian)
O=C([O-])CCc1ccccc1.O=C([O-])CCc1ccccc1.O=C([O-])CCc1ccccc1.O=C([O-])CCc1ccccc1.[Mo+2].[Mo+2]	> 100 µM	> 100 µM	> 100 µM	> 100	> 100 µM	> 100 µM	> 100 µM	> 100 µM	> 100 µM	> 100 µM	> 100 µM	> 100 µM	> 100 µM	> 100 µM	> 100 µM	> 100	> 100 µM	> 100	> 100 µM	> 100 µM
O=C(O)c1ccc(C(=O)O)c(C(=O)O)c1.[NH-]C1CCCCC1[NH-].[Pt+2]	2.05 µM	33.7 µM	–	88.9	0.858 µM and 4.49 µM	66.8 µM	2.92 µM	60.8 µM	15.4 µM	61.6 µM	1.87 µM	39 µM	4.22 µM	26.5 µM	29.1 µM	90.8	3.19 µM	66.8	8.64 µM	39.9 µM
O=C(/C=C/c1cccc(S(=O)(=O)Nc2ccccc2)c1)NO	1.08 µM and 1.29 µM	> 48.9 µM and 68.5 µM	0.325 µM and 0.0593 µM	> 100	–	58.2 µM and > 100 µM	0.309 µM and 0.0341 µM	16.9 µM and 17 µM	0.553 µM and 0.25 µM	10.8 µM and > 100 µM	0.459 µM and 0.0805 µM	17.8 µM and 44.4 µM	0.448 µM and 0.134 µM	5.91 µM and 29.5 µM	1.13 µM and 0.409 µM	> 100	1.68 µM and 0.244 µM	–	0.565 µM and 0.512 µM	4.16 µM and 3.76 µM
CCOc1cc(/C=C/C(=O)C(C(=O)/C=C/c2ccc(OC(=O)CNc3nnc(C)s3)c(OCC)c2)C(=O)CNc2nnc(C)s2)ccc1OC(=O)CNc1nnc(C)s1	2.16 µM	5.85 µM	0.352 µM	> 100	0.251 µM	1.06 µM	3.43 µM	14.4 µM	2.81 µM	9.54 µM	2.36 µM	7.44 µM	1.41 µM	7.81 µM	3 µM	15.2	1.86 µM	6.4	1.24 µM	4.85 µM
COC(=O)[C@@H](C)C[C@H](Cc1ccccc1)NC(=O)c1csc([C@@H](C[C@H](C(C)C)N(C)C(=O)C2(NC(=O)[C@H]3CCCCN3C)CCC2)OC(C)=O)n1	0.0944 µM and 0.0665 µM	> 25 µM	0.00252 µM and 0.0025 µM	> 25	0.00533 µM and 0.0025 µM	> 25 µM	0.0168 µM and 0.00626 µM	> 25 µM	> 25 µM	> 25 µM	0.0564 µM and 0.0136 µM	> 25 µM	0.734 µM and 0.157 µM	> 25 µM	–	> 25	0.0087 µM and 0.017 µM	> 25	0.000487 µM and 0.0025 µM	0.0101 µM and 0.00672 µM
NC(=S)N/N=C(\CCC(=O)Nc1ccccc1[N+](=O)[O-])CC(=O)c1ccco1	–	> 100 µM	–	> 100	–	> 100 µM	–	> 100 µM	–	> 100 µM	–	> 100 µM	–	> 100 µM	–	> 100	–	> 100	–	> 100 µM
CN(CSc1ccc(Cl)cc1)c1ccc(CSc2ccc(Cl)cc2)cc1	5.18 µM	22.2 µM	6.64 µM	> 100	0.704 µM	> 100 µM	13.6 µM	39.8 µM	10.3 µM	34.8 µM	5.22 µM	34.4 µM	1.06 µM	4.18 µM	3.16 µM	16	1.82 µM	15.9	1.97 µM	5.17 µM
O=C(Nc1ccc(I)cc1)c1cccc([N+](=O)[O-])c1O	3.36 µM	40.9 µM	2.64 µM	> 100	2.76 µM	29.7 µM	4.37 µM	> 100 µM	2.96 µM	8.57 µM	4.52 µM	> 100 µM	2.02 µM	8.49 µM	2.59 µM	> 100	3.54 µM	> 100	2.9 µM	> 100 µM
Cc1cc(C(O)(c2ccc(Nc3ccccc3)cc2)c2ccc(Nc3ccc(S(=O)(=O)O)cc3)cc2)ccc1N (stereo unspecified)	1.04 µM	2.95 µM	0.911 µM	> 100	0.439 µM	> 100 µM	1.08 µM	3.57 µM	1.35 µM	3.43 µM	1.55 µM	3.25 µM	1.12 µM	2.38 µM	1.49 µM	3.89	1.82 µM	9.12	1.11 µM	2.49 µM
NS(=O)(=O)c1ccc(N=C2C(=O)Nc3ccccc32)cc1	–	> 100 µM	–	> 100	–	> 100 µM	–	> 100 µM	–	> 100 µM	–	> 100 µM	–	> 100 µM	–	> 100	–	> 100	–	> 100 µM
O=c1c(O)cc2c(O)oc3c(=O)c(O)c(O)c4c(O)oc1c2c43	–	> 100 µM	–	57.9	–	> 100 µM	–	> 100 µM	–	> 100 µM	–	> 100 µM	–	> 100 µM	–	> 100	–	36.5	–	> 100 µM
C/C(=N\O)c1cccc(Nc2cc(-c3ccccc3)nc3c(O)cccc23)c1	2.77 µM	20.9 µM	0.581 µM	> 53.5	2.13 µM	> 26.5 µM	4.24 µM	39 µM	6.28 µM	25.4 µM	2.37 µM	23.5 µM	11.2 µM	30.4 µM	10.3 µM	56.7	3.58 µM	17.2	1.1 µM	14.5 µM
O=C(Cc1ccc(Nc2ccnc(C(F)(F)F)c2)cc1)N/N=C/c1ccccc1O	0.634 µM	> 69.5 µM	2.74 µM	20.1	0.716 µM	8.31 µM	3.15 µM	> 69.4 µM	3.18 µM	> 28.7 µM	4.49 µM	> 100 µM	1.52 µM	> 26 µM	3.05 µM	> 60.9	2.9 µM	> 58.6	0.793 µM	25.8 µM
CC(=O)N(CCN1C(=O)c2ccccc2C1=O)CCN1C(=O)c2ccccc2C1=O	–	> 100 µM	–	> 100	–	> 100 µM	–	> 100 µM	–	> 100 µM	–	> 100 µM	–	> 100 µM	–	> 100	–	> 100	–	> 100 µM
CCN1C(=O)N(CC)C2C1NC(=S)N2/N=C/C=C/c1ccccc1OC (stereo unspecified)	0.0341 µM	> 100 µM	0.0276 µM	> 100	0.0373 µM	> 100 µM	0.0378 µM	> 100 µM	> 100 µM	> 100 µM	0.0403 µM	> 100 µM	0.0879 µM	> 87.5 µM	0.0532 µM	> 100	0.0494 µM	> 100	0.0351 µM	1.16 µM
Oc1ccc(Cc2ccc(O)c(C3CC(c4ccc(Cl)cc4)=NN3)c2)cc1C1CC(c2ccc(Cl)cc2)=NN1 (stereo unspecified)	2.26 µM	> 35.8 µM	2.51 µM	> 100	1.94 µM	> 100 µM	2.87 µM	> 42.4 µM	3.1 µM	19.2 µM	2.79 µM	> 100 µM	3.07 µM	> 100 µM	3.2 µM	> 100	2.79 µM	> 37.3	2.71 µM	16.5 µM
CCC1c2cc3n(c(=O)c2COC1O)Cc1c-3nc2ccccc2c1Cl (stereo unspecified)	–	> 100 µM	–	> 100	–	> 100 µM	–	> 100 µM	–	> 100 µM	–	> 100 µM	–	> 100 µM	–	> 100	–	> 100	–	> 100 µM
